Source: patent publication US9676714B2, “Sulfonylindole derivatives and method for preparing the same” (Daewoong Pharmaceutical Co., Ltd., priority 2013, dated 2017)
pIC50: −log10 of the molar value. Structures can show the parent of a compound that is named as a salt.

Legend:
[1] = target: T1, proton pump (H+/K+-ATPase) (Sus scrofa, UniProt P19156); test: Measurement of inhibitory effects on proton pump (H+/K+-ATPase) activities; type: biochemical; settings: hog gastric vesicles, K+-specific H+/K+-ATPase activity, Tris-HCl buffer pH 7.4, 37° C. for 40 minutes, malachite green Pi readout
T1 construct: Gastric vesicles were prepared from hog stomach via centrifugal separation; from tissue; host or cells: hog stomach (gastric vesicles, method of Rabon et al. 1988)
In short: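 Hog gastric vesicles in 60 mmol/l Tris-HCl pH 7.4 with 0.5% DMSO were treated with compounds at room temperature; reaction was started with 10 μl of 10 mmol/l ATP stock. Released Pi was read at 570 nm, K+-specific activity taken as the ±K+ difference. IC50 from 4-parameter logistic fit.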

[2] = test system: basal gastric acid secretion; test: Inhibitory effect on the basal gastric acid secretion in pylorus-ligated rats (Shay's rat model); type: in vivo, Sprague Dawley (SD) rats; settings: 5 h, male SD rats, 3 mg/kg/2 ml into the duodenum, five hours after the ligation, total gastric acid secretion vs control group
Description: 3) Inhibitory Effect on the Basal Gastric Acid Secretion in Pylorus-Ligated Rats
Assays for determining inhibitory effect of the compounds of the present invention on the basal gastric acid secretion was performed according to Shay's rat model (Shay, H., et al., 1945, gastroenterology, 5, p. 43-61). Male Sprague Dawley (SD) rats with a body weight in the range of 180˜220 g were divided into test (n=5) and control groups (n=5), and fasted for 18 hours with free access to water. Under isoflurane anesthesia, the abdomens of the rats were incised and then the pylorus was ligated. After the ligation, the control groups were administered with only 10% ethanol, 20% polyethylene glycol (PEG) 400, and 10% aqueous Cremophor solution through the duodenum, and the other groups were administered with test compounds suspended in 10% ethanol, 20% PEG 400, and 10% aqueous Cremophor solution at a concentration of 3 mg/kg/2 ml into the duodenum. Five hours after the ligation, the experimental animals were euthanized and their stomach contents were collected. The thus obtained contents were centrifuged at 4,000×g for 10 minutes, and the supernatant was recovered to obtain gastric juice therefrom. The amount of the gastric juice and its pH were measured. The acidity of the gastric juice was determined by 0.1 N-NaOH volume (ueq/mL) for automatic titration of gastric acid to pH 7.0. The total acid output was obtained by multiplying the gastric acidity by the amount of gastric juice. Inhibition Activity (%) of Test Compounds=(total gastric acid secretion in control group−total gastric acid secretion in groups treated with test compounds)/total gastric acid secretion in control group×100

T1 sequence (P19156 whole entry): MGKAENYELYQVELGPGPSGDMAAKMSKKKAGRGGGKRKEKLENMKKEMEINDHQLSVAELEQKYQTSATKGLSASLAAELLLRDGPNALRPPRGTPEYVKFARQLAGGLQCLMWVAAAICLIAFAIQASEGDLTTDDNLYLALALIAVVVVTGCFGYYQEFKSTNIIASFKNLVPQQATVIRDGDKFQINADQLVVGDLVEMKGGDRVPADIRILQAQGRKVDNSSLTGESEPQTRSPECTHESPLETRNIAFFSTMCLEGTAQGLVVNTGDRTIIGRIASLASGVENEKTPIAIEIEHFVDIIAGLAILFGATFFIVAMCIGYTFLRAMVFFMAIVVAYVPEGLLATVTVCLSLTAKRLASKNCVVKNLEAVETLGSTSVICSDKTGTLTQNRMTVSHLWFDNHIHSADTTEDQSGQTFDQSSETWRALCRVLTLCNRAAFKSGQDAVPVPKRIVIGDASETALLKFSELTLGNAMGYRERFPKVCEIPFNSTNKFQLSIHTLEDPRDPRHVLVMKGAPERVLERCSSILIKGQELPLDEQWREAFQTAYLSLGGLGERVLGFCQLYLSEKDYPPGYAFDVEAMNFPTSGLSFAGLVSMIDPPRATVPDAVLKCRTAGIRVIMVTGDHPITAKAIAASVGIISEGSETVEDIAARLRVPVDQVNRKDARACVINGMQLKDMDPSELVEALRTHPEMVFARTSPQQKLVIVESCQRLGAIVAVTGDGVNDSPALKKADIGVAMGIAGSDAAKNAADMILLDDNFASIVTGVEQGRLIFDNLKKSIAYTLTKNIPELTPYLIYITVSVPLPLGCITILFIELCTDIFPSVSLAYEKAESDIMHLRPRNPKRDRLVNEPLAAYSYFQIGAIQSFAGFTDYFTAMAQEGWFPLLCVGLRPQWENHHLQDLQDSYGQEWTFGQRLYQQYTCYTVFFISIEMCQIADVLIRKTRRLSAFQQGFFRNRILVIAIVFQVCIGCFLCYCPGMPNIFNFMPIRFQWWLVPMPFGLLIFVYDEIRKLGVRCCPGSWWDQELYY
T1 sequence (P18434 whole entry partner): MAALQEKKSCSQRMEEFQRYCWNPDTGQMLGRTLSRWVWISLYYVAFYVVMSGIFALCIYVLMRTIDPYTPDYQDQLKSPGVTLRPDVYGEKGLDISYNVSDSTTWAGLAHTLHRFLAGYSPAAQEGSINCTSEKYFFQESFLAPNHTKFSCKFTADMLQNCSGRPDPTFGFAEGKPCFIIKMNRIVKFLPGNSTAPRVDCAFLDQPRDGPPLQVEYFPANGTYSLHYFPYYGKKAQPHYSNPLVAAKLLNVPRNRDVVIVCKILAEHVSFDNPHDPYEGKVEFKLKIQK

SMILES | pIC50 [1] | inhibition in vivo at 3 mg/kg [2]
CNCc1cn(S(=O)(=O)c2cccnc2)c2cc(Nc3ccc(OC)cc3OC(F)(F)F)ccc12 [Example 50, N-(4-methoxy-2-(trifluoromethoxy)phenyl)-3-((methylamino)methyl)-1-(pyridin-3-ylsulfonyl)-1H-indol-6-amine hydrochloride] | 5.86 | 67%
CNCc1cn(S(=O)(=O)c2cccc(F)c2)c2cc(Nc3ccc(OC(F)(F)F)cc3OC)ncc12 [Example 356, 1-((3-fluorophenyl)sulfonyl)-N-(2-methoxy-4-(trifluoromethoxy)phenyl)-3-((methylamino)methyl)-1H-pyrrolo[3,2-c]pyridin-6-amine hydrochloride] | 5.70 | 63%
CNCc1cn(S(=O)(=O)c2cccc(Cl)c2)c2cc(Nc3ccc(C)cc3OC(F)(F)F)ccc12 [Example 148, 1-((3-chlorophenyl)sulfonyl)-N-(4-methyl-2-(trifluoromethoxy)phenyl)-3-((methylamino)methyl)-1H-indol-6-amine hydrochloride] | 8.00 | 45%
CNCc1cn(S(=O)(=O)c2cccc(OC(F)F)c2)c2cc(Nc3ccc(OC)nc3Cl)ccc12 [Example 182, N-(2-chloro-6-methoxypyridin-3-yl)-1-((3-(difluoromethoxy)phenyl)sulfonyl)-3-((methylamino)methyl)-1H-indol-6-amine hydrochloride] | 6.41 | 44%
CNCc1cn(S(=O)(=O)c2cccnc2)c2cc(Nc3ccnc(Cl)c3Br)ccc12 [Example 133, N-(3-bromo-2-chloropyridin-4-yl)-3-((methylamino)methyl)-1-(pyridin-3-ylsulfonyl)-1H-indol-6-amine hydrochloride] | 6.11 | 40%
CNCc1cn(S(=O)(=O)c2cccnc2)c2cc(Nc3ccc(OC(F)(F)F)cc3OC)ccc12 [Example 56, N-(2-methoxy-4-(trifluoromethoxy)phenyl)-3-((methylamino)methyl)-1-(pyridin-3-ylsulfonyl)-1H-indol-6-amine hydrochloride] | 6.34 | 82%
CNCc1cn(S(=O)(=O)c2cccnc2)c2cc(Nc3ccc(C(F)(F)F)nc3Cl)ccc12 [Example 125, N-(2-chloro-6-(trifluoromethyl)pyridin-3-yl)-3-((methylamino)methyl)-1-(pyridin-3-ylsulfonyl)-1H-indol-6-amine hydrochloride] | 5.97 | 45%
CNCc1cn(S(=O)(=O)c2cccnc2)c2cc(Nc3ccc(C(F)(F)F)cc3Cl)ccc12 [Example 34, N-(2-chloro-4-(trifluoromethyl)phenyl)-3-((methylamino)methyl)-1-(pyridin-3-ylsulfonyl)-1H-indol-6-amine hydrochloride] | 6.41 | 45%
CNCc1cn(S(=O)(=O)c2cccc(F)c2)c2cc(Nc3ccc(Cl)nc3C(F)(F)F)ccc12 [Example 143, N-(6-chloro-2-(trifluoromethyl)pyridin-3-yl)-1-((3-fluorophenyl)sulfonyl)-3-((methylamino)methyl)-1H-indol-6-amine hydrochloride] | 6.54 | 53%
CNCc1cn(S(=O)(=O)c2cccnc2)c2cc(Nc3ccc(Cl)nc3OC)ccc12 [Example 120, N-(6-chloro-2-methoxypyridin-3-yl)-3-((methylamino)methyl)-1-(pyridin-3-ylsulfonyl)-1H-indol-6-amine hydrochloride] | 6.38 | 46%
CNCc1cn(S(=O)(=O)c2cccc(F)c2)c2cc(Nc3ccc(C(F)(F)F)nc3Cl)ccc12 [Example 145, N-(2-chloro-6-(trifluoromethyl)pyridin-3-yl)-1-((3-fluorophenyl)sulfonyl)-3-((methylamino)methyl)-1H-indol-6-amine hydrochloride] | 6.77 | 45%
CNCc1cn(S(=O)(=O)c2cccnc2)c2cc(Nc3ccc(Cl)cc3C(F)(F)F)ccc12 [Example 31, N-(4-chloro-2-(trifluoromethyl)phenyl)-3-((methylamino)methyl)-1-(pyridin-3-ylsulfonyl)-1H-indol-6-amine hydrochloride] | 6.04 | 41%
CNCc1cn(S(=O)(=O)c2cccnc2)c2cc(Nc3ccc(OC)cc3[N+](=O)[O-])ccc12 [Example 52, N-(4-methoxy-2-nitrophenyl)-3-((methylamino)methyl)-1-(pyridin-3-ylsulfonyl)-1H-indol-6-amine hydrochloride] | 6.54 | 70%
CNCc1cn(S(=O)(=O)c2cccnc2)c2cc(Nc3cccnc3OC)ccc12 [Example 108, N-(2-methoxypyridin-3-yl)-3-((methylamino)methyl)-1-(pyridin-3-ylsulfonyl)-1H-indol-6-amine hydrochloride] | 5.80 | 49%

The next lines start with results.

pIC50 [1] | SMILES | inhibition in vivo at 3 mg/kg [2]
7.05 | CNCc1cn(S(=O)(=O)c2cncc(F)c2)c2cc(Nc3ccc(C)cc3Cl)ccc12 [Example 211, N-(2-chloro-4-methylphenyl)-1-((5-fluoropyridin-3-yl)sulfonyl)-3-((methylamino)methyl)-1H-indol-6-amine hydrochloride] | 43%
5.53 | CNCc1cn(S(=O)(=O)c2cncc(F)c2)c2cc(Nc3ccc(C(F)(F)F)nc3Cl)ccc12 [Example 218, N-(2-chloro-6-(trifluoromethyl)pyridin-3-yl)-1-((5-fluoropyridin-3-yl)sulfonyl)-3-((methylamino)methyl)-1H-indol-6-amine hydrochloride] | 49%
5.94 | CNCc1cn(S(=O)(=O)c2cccc(C)c2)c2cc(Nc3ccc(C)cc3F)ccc12 [Example 226, N-(2-fluoro-4-methylphenyl)-3-((methylamino)methyl)-1-(m-tolylsulfonyl)-1H-indol-6-amine hydrochloride] | 44%
6.89 | CNCc1cn(S(=O)(=O)c2cccnc2)c2cc(Nc3ccc(Cl)cc3Cl)ccc12 [Example 29, N-(2,4-dichlorophenyl)-3-((methylamino)methyl)-1-(pyridin-3-ylsulfonyl)-1H-indol-6-amine hydrochloride] | 44%
6.21 | CNCc1cn(S(=O)(=O)c2cccnc2)c2cc(Nc3cc(F)c(C)cc3F)ccc12 [Example 72, N-(2,5-difluoro-4-methylphenyl)-3-((methylamino)methyl)-1-(pyridin-3-ylsulfonyl)-1H-indol-6-amine hydrochloride] | 49%
6.92 | CNCc1cn(S(=O)(=O)c2cccc(F)c2)c2cc(Nc3ccc(Cl)nc3Cl)ccc12 [Example 142, N-(2,6-dichloropyridin-3-yl)-1-((3-fluorophenyl)sulfonyl)-3-((methylamino)methyl)-1H-indol-6-amine hydrochloride] | 42%
6.43 | CNCc1cn(S(=O)(=O)c2cncc(F)c2)c2cc(Nc3ccc(C)cc3F)ccc12 [Example 210, N-(2-fluoro-4-methylphenyl)-1-((5-fluoropyridin-3-yl)sulfonyl)-3-((methylamino)methyl)-1H-indol-6-amine hydrochloride] | 43%
6.42 | CNCc1cn(S(=O)(=O)c2cccc(F)c2)c2cc(Nc3ccc(OC)nc3Cl)ccc12 [Example 144, N-(2-chloro-6-methoxypyridin-3-yl)-1-((3-fluorophenyl)sulfonyl)-3-((methylamino)methyl)-1H-indol-6-amine hydrochloride] | 53%
6.41 | CNCc1cn(S(=O)(=O)c2cccc(F)c2)c2cc(Nc3ccc(Cl)nc3OC)ccc12 [Example 141, N-(6-chloro-2-methoxypyridin-3-yl)-1-((3-fluorophenyl)sulfonyl)-3-((methylamino)methyl)-1H-indol-6-amine hydrochloride] | 51%
6.04 | CNCc1cn(S(=O)(=O)c2ccc(Cl)cc2)c2cc(Nc3ccc(C)cc3F)ccc12 [Example 230, 1-((4-chlorophenyl)sulfonyl)-N-(2-fluoro-4-methylphenyl)-3-((methylamino)methyl)-1H-indol-6-amine hydrochloride] | 
5.23 | CNc1cn(S(=O)(=O)c2cccnc2)c2cc(Nc3ccc(C)cc3F)ccc12 [Example 333, N6-(2-fluoro-4-methylphenyl)-N3-methyl-1-(pyridin-3ylsulfonyl)-1H-indol-3,6-diamine hydrochloride] | 
